Patent publication EP0869969B1, “PEPTIDE CONJUGATES, USE THEREOF AS A DRUG, AND COMPOSITIONS CONTAINING them” (INSTITUT EUROPEEN DE BIOLOGIE CELLULAIRE, priority 1995, dated 2003)
Several values for one entry are separate records, joined by “and”; a condition that tells them apart may be missing. Identical values can stand only once. Starred links: 1 amine or outer side, 2 acyl side, 3 side chain; linkers in the order of their positions; H or OH if unused. Residues, ends and D or L forms follow the SMILES beside them. Adipoyl = O=C(CCCCC(=O)[*:2])[*:1]

Assays:
[1] = test system: rat-OFA; experiment: Wound-healing power in the rat: sutured flank incision, topical application, scar resistance to stretching by dynamometer; format: in vivo; conditions: for augmentation de la cicatrisation des plaies par rapport aux témoins: 5 jours; for Résistance des cicatrices à l'étirement, Moyenne: mean of treated group (control 24,5 +/- 1,5)
Experimental: Déterminer le pouvoir cicatrisant du peptide n° 7 administré chez le rat-OFA par applications topiques aux doses de 0,75 µg, 7,5 µg et 75 µg par animal pendant cinq jours.
I - Animaux : rats de souche OFA, OF1, IFFA-CREDO, pesant de 250 à 300 g.
Conjugué peptidique n° 7, correspondant la formule : Adipoyl-Lys-Lys-Gly-His-Lys-NH2.
Mis en solution dans le propylène glycol aux doses de 1,5 µg/ml, 15 µg/ml, 150 µg/ml.
Après anesthésie générale à l'éther, une incision de 5 cm de long a été pratiquée sur la flanc droit des animaux.
Une suture en fil trinyl 2/0 a été effectuée à raison d'un point tous les 0,5 cm.
Les animaux traités comme les témoins ont subi la même intervention dans les mêmes conditions.
Le traitement a débuté le lendemain de l'intervention sur les lots d'animaux traités aux doses de 0,5 ml de solution peptidique sur chaque incision.
Soit 0,75 µg, 7,5 µg et 75 µg de peptide par animal et par application pendant la durée du traitement, soit 5 jours.
Les animaux ont été mis en observation pendant 9 jours, ils ont ensuite été sacrifiés par une dose létale de penthiobarbital.
Les zones de peau en cours de cicatrisation ont été prélevées et soumises aux "tests" d'étirement au dynamomètre, pour mesurer la résistance de la cicatrice à l'étirement.
Une analyse statistique a été effectuée sur les valeurs de résistance obtenue au dynamomètre. Une analyse de variance et un test de "T" student a été pratiqué sur les valeurs individuelles, afin de définir le seuil de signification des résultats.

[2] = test system: fibroblastes humains de plastie mammaire; experiment: Type I collagen synthesis by cultured primary fibroblasts, secondary immunofluorescence (rhodamine/TRITC); format: cell-based, humain
Description: (§1) La mise en évidence de l'influence du conjugué n' 7 sur la synthèse de collagène de type I par des cellules en culture a été réalisée sur deux types cellulaires : • des fibroblastes humains de plastie mammaire au 3ème passage, obtenus dans notre laboratoire de culture cellulaire à l'IEB, • des MRC5, fibroblastes de poumon embryonnaire humain non transformés au passage p38, obtenus à p 25-30 chez ICN FLOW.
(§2) Les cellules sont stimulées ou non avec le conjugué n° 7, puis elles sont observées au microscope pholoniquc à fluorescence après révélation du collagène de type I par une réaction d'immuno-fluorescence secondaire.
(§3) Les cellules sont ensemencées à raison de 70 000 cellules par ml pour les fibroblastes de primoculture et 20 000 pour les MRC5.
(§4) La culture est réalisée en DMEM 10% SVF dans les tubes de Leigton contenant une lamelle dans le fond du tube, volume final : 1,6 ml.
8 tubes sont prévus par type cellulaire : 3 témoins et 5 concentrations.
Ces différentes solutions mères seront ajoutées au milieu de culture au moment du contact produit.
Les dilutions sont réalisées dans du PBS (Eurobio) - BSA 0,1% (Flucka) puis filtrées sur filtres 0,22 µm (Sartorius).
A J0, le milieu est éliminé et remplacé par du milieu frais auquel est ajouté le conjugué n° 7 aux différentes concentrations selon le tableau suivant :
Les témoins TO et T ne reçoivent que du milieu.
Le milieu est élimine; les tubes sont rincés 3 fois avec du DMEM sans sérum à 37° C. Les cellules sont fixées 20 mn à 4°C en présence de PFA 2,5% (Prolabo) dans du Hanks (Eurobio).
3 rinçages en DMEM sans sérum sont effectués suivis de 2 lavages 10 mn en PBS sans calcium ni magnésium (Eurobio). […]
(§5) Les observations microscopiques sont réalisées sur un microscope droit à fluorescence Zeiss (Axioplan), surmonté d'une caméra 3 CCD Sony (MC-3215 P/M) reliée à un moniteur vidéo Trinitron avec écran couleur Sony. […]
(§6) Les cellules sont d'abord observées en contraste interférentiel et/ou de phase. Quand un champ est sélectionné, l'image est enregistrée, puis sans bouger d'endroit l'observation est réalisée en fluorescence et enregistrée. […]

[3] = test system: MRC5, fibroblastes de poumon embryonnaire humain; experiment: Type I collagen synthesis by cultured MRC5 fibroblasts, secondary immunofluorescence; format: cell-based; conditions: MRC5, results not shown
Description: as §1, §2, §3, §4
8 tubes sont prévus par type cellulaire : 3 témoins et 5 concentrations. […]
as §5, §6

SMILES: NCCCC[C@H](NC(=O)[C@H](Cc1c[nH]cn1)NC(=O)CNC(=O)[C@H](CCCCN)NC(=O)[C@H](CCCCN)NC(=O)CCCCC(=O)O)C(N)=O [conjugué 7, Adipoyl-Lys-Lys-Gly-His-Lys-NH2] (Adipoyl-KKGHK-NH2)
- augmentation de la cicatrisation des plaies par rapport aux témoins ([1]; topical, 0,75 µg par jour): 14,5%
- Résistance des cicatrices à l'étirement "dynamométrie" ([1]; topical, 0,75 µg/jour/5 jours, individual treated animals, sacrifice after 9 days): 28,5 Dynes and 26,1 Dynes and 29,3 Dynes and 27,7 Dynes and 28,6 Dynes
- Résistance des cicatrices à l'étirement "dynamométrie", Moyenne ([1]; topical, 0,75 µg/jour/5 jours, mean of treated group (control 24,5+/-1,5)): 28,0+/-1,2 Dynes
- augmentation de la cicatrisation des plaies par rapport aux témoins ([1]; topical, 75 µg par jour): 59,6%
- augmentation de la cicatrisation des plaies par rapport aux témoins ([1]; topical, 7,5 µg par jour): 30,9%
- Résistance des cicatrices à l'étirement, Dynes ([1]; topical, 7,5 µg/jour/5 jours (Tableau n° 2), individual treated animals): 32,6 Dynes and 30,4 Dynes and 33,1 Dynes and 32,3 Dynes and 31,8 Dynes
- Résistance des cicatrices à l'étirement, Moyenne ([1]; topical, 7,5 µg/jour/5 jours (Tableau n° 2)): 32,0 +/- 1,0 Dynes
- Résistance des cicatrices à l'étirement, Dynes ([1]; topical, Tableau n° 3, 7,5 µg/jour/5 jours, individual treated animals): 39,8 Dynes and 41,3 Dynes and 37,5 Dynes and 36,2 Dynes and 40,7 Dynes
- Résistance des cicatrices à l'étirement, Moyenne ([1]; topical, Tableau n° 3, 7,5 µg/jour/5 jours): 39,1+/-2,2 Dynes
- aspect des cicatrisations au 9ème jour ([1]; topical, day 9): cicatrisation parfaitement plate, avec absence de bourrelets cicatriciels
- action cicatrisante ([1]; topical, overall conclusion): action cicatrisante hautement significative
- synthèse de collagène de type I ([2]; 10-11 M, fibroblastes de primoculture): stimule très significativement
- luminosité moyenne du rouge sur l'ensemble de l'image ([2]; 10-11 M, untreated cells 32,78): 54,8
- stimulation de la synthèse de collagène de type 1 ([2]; fibroblastes humains de primocultures, versus untreated cells): +67%
- synthèse de collagène de type I [3]: mêmes tendances
